In ChEMBL document CHEMBL4251595, “Green approach for the synthesis of thiophenyl pyrazoles and isoxazoles by adopting 1,3-dipolar cycloaddition methodology and their antimicrobial activity” (2018):
Converted amounts (≈) assume the structure as drawn.

Legend:
Assay type in all cases: functional
Staphylococcus aureus [1] = assay: Antimicrobial activity against Staphylococcus aureus assessed as zone of inhibition at 50 ug/well after 24 hrs by agar well diffusion method; conditions: read-out: DIZ
Staphylococcus aureus [2] = assay: Antimicrobial activity against Staphylococcus aureus assessed as zone of inhibition at 75 ug/well after 24 hrs by agar well diffusion method; conditions: read-out: DIZ
Staphylococcus aureus [3] = assay: Antimicrobial activity against Staphylococcus aureus assessed as zone of inhibition at 100 ug/well after 24 hrs by agar well diffusion method; conditions: read-out: DIZ
Bacillus subtilis [4] = assay: Antimicrobial activity against Bacillus subtilis assessed as zone of inhibition at 50 ug/well after 24 hrs by agar well diffusion method; conditions: read-out: DIZ
Bacillus subtilis [5] = assay: Antimicrobial activity against Bacillus subtilis assessed as zone of inhibition at 75 ug/well after 24 hrs by agar well diffusion method; conditions: read-out: DIZ
Bacillus subtilis [6] = assay: Antimicrobial activity against Bacillus subtilis assessed as zone of inhibition at 100 ug/well after 24 hrs by agar well diffusion method; conditions: read-out: DIZ
Pseudomonas aeruginosa [7] = assay: Antimicrobial activity against Pseudomonas aeruginosa assessed as zone of inhibition at 50 ug/well after 24 hrs by agar well diffusion method; conditions: read-out: DIZ
Pseudomonas aeruginosa [8] = assay: Antimicrobial activity against Pseudomonas aeruginosa assessed as zone of inhibition at 75 ug/well after 24 hrs by agar well diffusion method; conditions: read-out: DIZ
Pseudomonas aeruginosa [9] = assay: Antimicrobial activity against Pseudomonas aeruginosa assessed as zone of inhibition at 100 ug/well after 24 hrs by agar well diffusion method; conditions: read-out: DIZ
Klebsiella pneumoniae [10] = assay: Antimicrobial activity against Klebsiella pneumoniae assessed as zone of inhibition at 50 ug/well after 24 hrs by agar well diffusion method; conditions: read-out: DIZ
Klebsiella pneumoniae [11] = assay: Antimicrobial activity against Klebsiella pneumoniae assessed as zone of inhibition at 75 ug/well after 24 hrs by agar well diffusion method; conditions: read-out: DIZ
Klebsiella pneumoniae [12] = assay: Antimicrobial activity against Klebsiella pneumoniae assessed as zone of inhibition at 100 ug/well after 24 hrs by agar well diffusion method; conditions: read-out: DIZ
Aspergillus niger [13] = assay: Antifungal activity against Aspergillus niger assessed as zone of inhibition at 50 ug/well after 48 hrs by agar well diffusion method; conditions: read-out: DIZ
Aspergillus niger [14] = assay: Antifungal activity against Aspergillus niger assessed as zone of inhibition at 75 ug/well after 48 hrs by agar well diffusion method; conditions: read-out: DIZ
Aspergillus niger [15] = assay: Antifungal activity against Aspergillus niger assessed as zone of inhibition at 100 ug/well after 48 hrs by agar well diffusion method; conditions: read-out: DIZ
Penicillium chrysogenum [16] = assay: Antifungal activity against Penicillium chrysogenum assessed as zone of inhibition at 50 ug/well after 48 hrs by agar well diffusion method; conditions: read-out: DIZ
Penicillium chrysogenum [17] = assay: Antifungal activity against Penicillium chrysogenum assessed as zone of inhibition at 75 ug/well after 48 hrs by agar well diffusion method; conditions: read-out: DIZ
Penicillium chrysogenum [18] = assay: Antifungal activity against Penicillium chrysogenum assessed as zone of inhibition at 100 ug/well after 48 hrs by agar well diffusion method; conditions: read-out: DIZ
Staphylococcus aureus [19] = assay: Antimicrobial activity against Staphylococcus aureus after 24 hrs by broth dilution test
Bacillus subtilis [20] = assay: Antimicrobial activity against Bacillus subtilis after 24 hrs by broth dilution test
Pseudomonas aeruginosa [21] = assay: Antimicrobial activity against Pseudomonas aeruginosa after 24 hrs by broth dilution test
Klebsiella pneumoniae [22] = assay: Antimicrobial activity against Klebsiella pneumoniae after 24 hrs by broth dilution test
Aspergillus niger [23] = assay: Antifungal activity against Aspergillus niger after 48 hrs by broth dilution test
Penicillium chrysogenum [24] = assay: Antifungal activity against Penicillium chrysogenum after 48 hrs by broth dilution test
Staphylococcus aureus [25] = assay: Bactericidal activity against Staphylococcus aureus incubated for 24 hrs followed by replating on sterile nutrient broth and incubated for 24 hrs by broth dilution test
Bacillus subtilis [26] = assay: Bactericidal activity against Bacillus subtilis incubated for 24 hrs followed by replating on sterile nutrient broth and incubated for 24 hrs by broth dilution test
Pseudomonas aeruginosa [27] = assay: Bactericidal activity against Pseudomonas aeruginosa incubated for 24 hrs followed by replating on sterile nutrient broth and incubated for 24 hrs by broth dilution test
Klebsiella pneumoniae [28] = assay: Bactericidal activity against Klebsiella pneumoniae incubated for 24 hrs followed by replating on sterile nutrient broth and incubated for 24 hrs by broth dilution test
Aspergillus niger [29] = assay: Fungicidal activity against Aspergillus niger incubated for 48 hrs followed by replating on PDA and incubated for 48 hrs by broth dilution test
Penicillium chrysogenum [30] = assay: Fungicidal activity against Penicillium chrysogenum incubated for 48 hrs followed by replating on PDA and incubated for 48 hrs by broth dilution test

Row | Compound | zone of inhibition at 50 µg/disc (Staphylococcus aureus [1]) [mm] | zone of inhibition at 75 µg/disc (Staphylococcus aureus [2]) [mm] | zone of inhibition at 100 µg/disc (Staphylococcus aureus [3]) [mm] | zone of inhibition at 50 µg/disc (Bacillus subtilis [4]) [mm] | zone of inhibition at 75 µg/disc (Bacillus subtilis [5]) [mm] | zone of inhibition at 100 µg/disc (Bacillus subtilis [6]) [mm] | zone of inhibition at 50 µg/disc (Pseudomonas aeruginosa [7]) [mm] | zone of inhibition at 75 µg/disc (Pseudomonas aeruginosa [8]) [mm] | zone of inhibition at 100 µg/disc (Pseudomonas aeruginosa [9]) [mm] | zone of inhibition at 50 µg/disc (Klebsiella pneumoniae [10]) [mm] | zone of inhibition at 75 µg/disc (Klebsiella pneumoniae [11]) [mm] | zone of inhibition at 100 µg/disc (Klebsiella pneumoniae [12]) [mm] | zone of inhibition at 50 µg/disc (Aspergillus niger [13]) [mm] | zone of inhibition at 75 µg/disc (Aspergillus niger [14]) [mm] | zone of inhibition at 100 µg/disc (Aspergillus niger [15]) [mm] | zone of inhibition at 50 µg/disc (Penicillium chrysogenum [16]) [mm] | MIC (Staphylococcus aureus [19]) [µg/mL] | MIC (Bacillus subtilis [20]) [µg/mL] | MIC (Pseudomonas aeruginosa [21]) [µg/mL] | MIC (Klebsiella pneumoniae [22]) [µg/mL] | other results
1 | O=C(NS(=O)(=O)/C=C/c1ccc([N+](=O)[O-])cc1)c1ccc(Cl)s1 | 21 | 24 | 26 | 31 | 34 | 38 | 19 | 21 | 24 | 27 | 29 | 33 | 27 | 29 | 31 | 24 | 50 (≈ 134 µM) | 6.25 (≈ 16.8 µM) | 25 (≈ 67.1 µM) | 25 (≈ 67.1 µM) | zone of inhibition at 75 µg/disc (Penicillium chrysogenum [17]): 26 mm; zone of inhibition at 100 µg/disc (Penicillium chrysogenum [18]): 28 mm; MIC (Aspergillus niger [23]): 25 µg/mL (≈ 67.1 µM); MIC (Penicillium chrysogenum [24]): 100 µg/mL (≈ 268 µM); MBC (Staphylococcus aureus [25]): 200 µg/mL (≈ 536 µM); MBC (Bacillus subtilis [26]): 12.5 µg/mL (≈ 33.5 µM); MBC (Pseudomonas aeruginosa [27]): 100 µg/mL (≈ 268 µM); MBC (Klebsiella pneumoniae [28]): 100 µg/mL (≈ 268 µM); MFC (Aspergillus niger [29]): 100 µg/mL (≈ 268 µM); MFC (Penicillium chrysogenum [30]): > 200 µg/mL
2 | O=C(NS(=O)(=O)/C=C/c1ccc([N+](=O)[O-])cc1)c1cccs1 | 19 | 22 | 25 | 30 | 32 | 36 | 16 | 19 | 21 | 26 | 30 | 31 | 23 | 25 | 28 | 22 | 100 (≈ 296 µM) | 12.5 (≈ 36.9 µM) | 25 (≈ 73.9 µM) | 50 (≈ 148 µM) | zone of inhibition at 75 µg/disc (Penicillium chrysogenum [17]): 24 mm; zone of inhibition at 100 µg/disc (Penicillium chrysogenum [18]): 27 mm; MIC (Aspergillus niger [23]): 25 µg/mL (≈ 73.9 µM); MIC (Penicillium chrysogenum [24]): 100 µg/mL (≈ 296 µM); MBC (Staphylococcus aureus [25]): > 200 µg/mL; MBC (Bacillus subtilis [26]): 50 µg/mL (≈ 148 µM); MBC (Pseudomonas aeruginosa [27]): 100 µg/mL (≈ 296 µM); MBC (Klebsiella pneumoniae [28]): 200 µg/mL (≈ 591 µM); MFC (Aspergillus niger [29]): 100 µg/mL (≈ 296 µM); MFC (Penicillium chrysogenum [30]): > 200 µg/mL
3 | O=C(N[C@H](CO)[C@H](O)c1ccc([N+](=O)[O-])cc1)C(Cl)Cl [CHLORAMPHENICOL] | 30 | 33 | 35 | 32 | 34 | 38 | 25 | 27 | 30 | 38 | 40 | 42 |  |  |  |  | 12.5 (≈ 38.7 µM) | 6.25 (≈ 19.3 µM) | 6.25 (≈ 19.3 µM) | 6.25 (≈ 19.3 µM) | 
4 | O=C(NS(=O)(=O)c1c(-c2ccccc2)noc1-c1ccc([N+](=O)[O-])cc1)c1ccc(Cl)s1 | 27 | 30 | 32 | 37 | 39 | 44 | 23 | 25 | 28 | 32 | 35 | 38 | 35 | 37 | 40 | 27 | 50 (≈ 102 µM) | 6.25 (≈ 12.8 µM) | 12.5 (≈ 25.5 µM) | 25 (≈ 51 µM) | zone of inhibition at 75 µg/disc (Penicillium chrysogenum [17]): 29 mm; zone of inhibition at 100 µg/disc (Penicillium chrysogenum [18]): 33 mm; MIC (Aspergillus niger [23]): 6.25 µg/mL (≈ 12.8 µM); MIC (Penicillium chrysogenum [24]): 50 µg/mL (≈ 102 µM); MBC (Staphylococcus aureus [25]): 200 µg/mL (≈ 408 µM); MBC (Bacillus subtilis [26]): 12.5 µg/mL (≈ 25.5 µM); MBC (Pseudomonas aeruginosa [27]): 50 µg/mL (≈ 102 µM); MBC (Klebsiella pneumoniae [28]): 100 µg/mL (≈ 204 µM); MFC (Aspergillus niger [29]): 12.5 µg/mL (≈ 25.5 µM); MFC (Penicillium chrysogenum [30]): 200 µg/mL (≈ 408 µM)
